What was measured:
Format in all cases: physicochemical
[1] = Gas chromatography assay of actives in mouth freshener film; details: for Assay result (%): GC result relative to formula content, mouth freshener film; for GC Result (%): content in mouth freshener film
Description: Gas Chromatography is quantitative study use to determine assay of actives. GC was done by Bangalore Testing Laboratories Pvt. Ltd., Bangalore (FIG. 8). The GC is used to observe whether the active is intact in the film without its decomposition. Table 15 illustrated all the characteristic peaks of the actives (menthol, thymol, methyl salicylate, eucalyptol) used in the composition.

[2] = In-vitro disintegration time during formulation development (saliva stimulant and flavour optimisation)
Description: The purpose of using saliva stimulating agents is to increase the rate of production of saliva that would aid in the faster disintegration of the rapid dissolving strip formulations.
The concentration of menthol, eucalyptol and sucralose was optimized according to the mouth feel, freshening effect and the formulation was checked for its effect on disintegration time (Table 5).

[3] = Raman spectroscopy for stability of active after HME; details: ODF containing Vitamin B12 (Example 6), Raman spectra
Protocol: Raman spectroscopy is a spectroscopic technique commonly used in chemistry to provide a structural fingerprint by which molecules can be identified. It can identify a particular molecule/API based on the Raman shift. The formulated ODFs were analyzed using Raman spectra for identification of stability of active in the delivery system after processing using HME. The Raman spectra was recorded with a LabRam HR800 (Horiba Jovan Yvon, UK) equipped with a 534-nm Ar—Ne laser. The laser excitation was focused using a 50 objective (Olympus Corporation, Japan) and the scattered light was totally transmitted through the notch filter towards the confocal hole and entrance slit of the spectrograph. The stokes-shifted Raman scatter was dispersed using a […] grating onto a peltier-cooled changed-coupled device (CCD, Andor Technology PLC) to capture a spectrum. Each sample had their spectra measured using […] excitation (at 534 nm) of 250 mW and continuous readout of Raman shift spectrum from 0 to 3500 cm^−1. Spectra were acquired using a 50× objective and a […] confocal hole. A 600 lines/mm rotatable diffraction grating along a path length of 800 mm was used to simultaneously scan a range of frequencies. Raman spectra were collected using a Synapse CCD detector (1024 pixels).

UV assay of actives = details: UV absorbance at λmax, sample vs standard; ODF samples Examples 3-5
Protocol: A stock solution of 1000 μg/ml of alpha lipoic acid were prepared in methanol and measured absorbance at 322 nm.
Standard β-carotene for identification was prepared in DCM to obtain 1000 μg/mL and measured absorbance at 461 nm.
2 ml of the standard and sample solution of folic acid was taken in marked test tubes. In each test tube, 2 ml of 0.02% potassium permanganate solution, 2 ml 2% […] solution, 2 ml 4 M hydrochloric acid solution, 1 ml 5% ammonium sulphamate solution and 1 ml dye solution (0.1% N, N diethyl aniline dye solution in iso propyl alcohol) added and mixed well, then kept for 15 minute at room temperature. It was absorbance recorded at 535 nm against blank.
2 ml of the standard and sample solution of Vitamin B6 was taken in marked test tubes. In each test tube, 1 ml of ammonium buffer (in water), 1 ml of 20% sodium acetate (in water), 1 ml of 5% boric acid (in water) and 1 ml dye (2,6-di-chloroquinine chorimide) solution added and mixed well. It was absorbance recorded at 650 nm against blank.
The assay were prepared of standard and sample solutions of four actives, that is, lipoic acid, β-carotene, folic acid and Vitamin B6 respectively.

[4] = Thermogravimetric analysis (TGA); details: 30-360° C. at 20° C./min
Protocol: Thermogravimetric analysis (TGA) studies (Perkin Elmer Pyris 1, Shelton, Conn., USA) were performed to estimate the thermal stability of the actives and excipients during HME processing. Data were analyzed using Pyris software. The API excipients were heated from 30-360° C. at 20° C./min.

What does the source list for `COC(=O)c1ccccc1O` [Methyl Salicylate]?
Assay result (%) [1]: 92.8%; GC Result (%) [1]: 0.052%

What does the source list for `Cc1ccc(C(C)C)c(O)c1` [Thymol]?
Assay result (%) [1]: 104.3%; GC Result (%) [1]: 0.097%

For `O=C(O)CC(O)(CC(=O)O)C(=O)O` [Citric acid], which Disintegration time ([2]; saliva stimulating agent at 1 % composition) is on record?
Its Disintegration time is 14 s.

And the Disintegration time ([2]; saliva stimulating agent at 5 % composition)?
The Disintegration time was “Less than 10 seconds”.

And the Disintegration time ([2]; saliva stimulating agent at 10 % composition)?
The Disintegration time was “Less than 10 seconds”.

Which “Assay result (%)” value [1] does the source give for `CC1CCC(C(C)C)C(O)C1` (centres unmarked) [Menthol] here?
Its value is 92.1%.

And the “GC Result (%)” value [1]?
The value was 0.035%.

With Vitamin B12 as the molecule, how does the “stability of active after twin-screw HME processing” value [3] read?
The value was “does not degrade”.

For `CC1=C(/C=C/C(C)=C/C=C/C(C)=C/C=C/C=C(C)/C=C/C=C(C)/C=C/C2=C(C)CCCC2(C)C)C(C)(C)CCC1` [B carotene], which “Assay of actives Result (%)” value (UV assay of actives) is on record?
Its value is 98.28%.

Which “Assay of actives Result (%)” value (UV assay of actives) does the source give for `Nc1nc2ncc(CNc3ccc(C(=O)N[C@@H](CCC(=O)O)C(=O)O)cc3)nc2c(=O)[nH]1` [Folic acid] here?
The value was 99.1%.

With `O=C(O)CCCCC1CCSS1` (centres unmarked) [Lipoic acid] as the molecule, how does the “Assay of actives Result (%)” value (UV assay of actives) read?
Its value is 100.5%.

With `CC12CCC(CC1)C(C)(C)O2` [Eucalyptol] as the molecule, how does the “Assay result (%)” value [1] read?
The value was 96.6%.

And the “GC Result (%)” value [1]?
The value was 0.023(cineole %.

With `OC[C@H]1O[C@H](O[C@]2(CCl)O[C@H](CCl)[C@@H](O)[C@@H]2O)[C@H](O)[C@@H](O)[C@H]1Cl` [Sucralose] as the molecule, how does the loss of weight [4] read?
Its loss of weight is less than 7%.

For Vit B6, which “Assay of actives Result (%)” value (UV assay of actives) is on record?
The value was 99.3%.
